≈ marks a conversion by molar mass, not a printed value. Read-outs that look alike come from different tables or passages of the source.
Legend:
S. aureus ATCC 25923 [1] = assay: Antibacterial activity, post-exposure on preformed 18-h-old biofilms; type: cell-based, Staphylococcus aureus; settings: ± SD; for inhibition at 25 µM / inhibition at 50 µM / inhibition at 100 µM / inhibition at 200 µM: Staphylococcus aureus; for inhibition at 25 µM: ATCC25923, 25 µM; for inhibition at 50 µM: ATCC25923, 50 µM; for inhibition at 100 µM: ATCC25923, 100 µM; for inhibition at 200 µM: ATCC25923, 200 µM
Protocol: For the post-exposure experiment, bacteria were grown with no compounds in the same conditions for 18 h, after which the media was changed, and compounds were added on the preformed biofilms. The plates were then incubated in the same conditions for an additional 24 h before proceeding to the staining assays.
(§1) The resazurin staining was performed according to the protocol previously optimized with a few modifications.[46] Briefly, the planktonic solution was first transferred into a new 96-well plate and the OD of the planktonic solution was measured using a Varioskan LUX Multimode microplate reader (Thermo Scientific, Vantaa, Finland). Then, 10 μL of a 400 μM resazurin (R7017, Sigma-Aldrich, St. Louis, MO) diluted in phosphate-buffered saline (PBS) (Thermo Fisher Scientific, MA) was added to the wells (for a final resazurin concentration of 20 μM). The plate was incubated in the dark with shaking (220 rpm) for about 3–10 min at room temperature with S. aureus and A. baumannii (until the bacteria controls turned pink) or for 20 min at 37 °C with P. aeruginosa. Fluorescence was measured at λex = 560 nm and λem = 590 nm using the top optics of the Varioskan LUX Multimode microplate reader. The planktonic plate was then discarded. The original challenge plate containing the biofilms was washed once with PBS, and 200 μL of a 20 μM resazurin solution was added to the wells. The plate was incubated in the dark at 37 °C with shaking (220 rpm) for 30 min with S. aureus, 60 min with A. baumannii, and 90 min with P. aeruginosa. Fluorescence was measured as described for the planktonic solution. The biofilms were next treated with crystal violet staining.
(§2) After removing the resazurin solution from the plate, biofilms were fixed with ethanol 100% for 15 min at room temperature. Ethanol was then removed, and the biofilms were left to air-dry completely at RT. Crystal violet, diluted to 1:100 in deionized water from the 2.3% commercial solution (HT90132, Sigma-Aldrich, St. Louis, MO), was added to the wells and, after a 5 min incubation with the dye, the biofilms were washed twice with deionized water and left to air-dry for about 10 min. The dye was solubilized in ethanol 100% for 1 h, and absorbance was measured at 595 nm using a Multiskan Sky microplate spectrophotometer (Thermo Scientific, Vantaa, Finland).

A. baumannii NCTC 13423 = assay: Antibacterial activity, pre-exposure; type: cell-based, Acinetobacter baumannii; settings: for Average inhibition %, biofilms viability / Average inhibition %, planktonic cells viability / inhibition at 10 µM / inhibition at 15 µM / inhibition at 25 µM / inhibition at 50 µM: A. baumannii NCTC 13423, pre-exposure, ± SD; for inhibition at 10 µM / inhibition at 15 µM / inhibition at 25 µM / inhibition at 50 µM / MIC: Acinetobacter baumannii, NCTC13423
Protocol: (§3) The antimicrobial activity was assessed in a similar way for the initial screening and the dose–response evaluation against different bacterial strains. With the exception of the post-exposure experiment, the compounds were added to the wells along with the bacteria to test the ability of compounds to prevent bacterial growth and biofilm formation (pre-exposure). The compounds were diluted in DMSO and plated directly in 96-well plates before adding the bacterial culture, and plates were incubated for 18 h under aerobic conditions at 37 °C with shaking (220 rpm). The antibacterial activity of the compounds was assessed on planktonic cells and biofilms separately using two different measurements for each: optical density (turbidity) and resazurin reduction (viability) on planktonic cells and resazurin followed by a crystal violet staining assay (total biomass) on biofilms, as described in the following sections.
as §1, §2

P. aeruginosa ATCC 9027 = assay: Antibacterial activity, pre-exposure; type: cell-based, Pseudomonas aeruginosa; settings: for Average inhibition %, biofilms viability / Average inhibition %, planktonic cells viability / inhibition at 50 µM / inhibition at 100 µM / inhibition at 150 µM / inhibition at 200 µM: P. aeruginosa ATCC 9027, pre-exposure, ± SD; for MIC / inhibition at 50 µM / inhibition at 100 µM / inhibition at 150 µM / inhibition at 200 µM: Pseudomonas aeruginosa; for inhibition at 50 µM / inhibition at 100 µM / inhibition at 150 µM / inhibition at 200 µM: ATCC9027
Protocol: as §3, §1, §2

S. aureus ATCC 25923 [2] = assay: Antibacterial activity, pre-exposure (planktonic cells and biofilm formation); type: cell-based, Staphylococcus aureus; settings: for MIC / inhibition at 5 µM / inhibition at 10 µM / inhibition at 15 µM / inhibition at 25 µM: Staphylococcus aureus, ATCC25923; for inhibition at 5 µM / inhibition at 10 µM / inhibition at 15 µM / inhibition at 25 µM / Average inhibition %, biofilms viability / Average inhibition %, planktonic cells viability: pre-exposure, ± SD
Protocol: as §3, §1, §2

[3] = read-out: Average inhibition %, biofilms biomass
[4] = read-out: Average inhibition %, planktonic cells turbidity
[5] = 10 µM, read-out: Average inhibition %, biofilms biomass
[6] = 10 µM, read-out: Average inhibition %, planktonic cells turbidity
[7] = 15 µM, read-out: Average inhibition %, biofilms biomass
[8] = 15 µM, read-out: Average inhibition %, planktonic cells turbidity
[9] = 25 µM, read-out: Average inhibition %, biofilms biomass
[10] = 25 µM, read-out: Average inhibition %, planktonic cells turbidity
[11] = 50 µM, read-out: Average inhibition %, biofilms biomass
[12] = 50 µM, read-out: Average inhibition %, planktonic cells turbidity

CCCCCCCCCCc1ccc(CCC(N)(CO)CO)nc1 [Compound 62, 2-Amino-2-[2-(5-decylpyridin-2-yl)ethyl]propane-1,3-diol]
Average inhibition %, biofilms viability (S. aureus ATCC 25923 [1]; 25 µM): 12.6 ± 12.7% | Average inhibition %, planktonic cells viability (S. aureus ATCC 25923 [1]; 25 µM): 0 ± 0% | Average inhibition %, biofilms viability (S. aureus ATCC 25923 [1]; 50 µM): 37.2 ± 4.9% | Average inhibition %, planktonic cells viability (S. aureus ATCC 25923 [1]; 50 µM): 0 ± 0% | Average inhibition %, biofilms viability (S. aureus ATCC 25923 [1]; 100 µM): 56.4 ± 12% | Average inhibition %, planktonic cells viability (S. aureus ATCC 25923 [1]; 100 µM): 55.8 ± 42.1% | Average inhibition %, biofilms viability (S. aureus ATCC 25923 [1]; 200 µM): 99.3 ± 0.3% | Average inhibition %, planktonic cells viability (S. aureus ATCC 25923 [1]; 200 µM): 100.1 ± 0.1% | inhibition at 25 µM (S. aureus ATCC 25923 [1]; [3]): 43.1 ± 11% | inhibition at 25 µM (S. aureus ATCC 25923 [1]; [4]): 15.7 ± 12.5% | inhibition at 50 µM (S. aureus ATCC 25923 [1]; [3]): 63.9 ± 10.9% | inhibition at 50 µM (S. aureus ATCC 25923 [1]; [4]): 16.7 ± 24.2% | inhibition at 100 µM (S. aureus ATCC 25923 [1]; [3]): 76.2 ± 5.6% | inhibition at 100 µM (S. aureus ATCC 25923 [1]; [4]): 57.6 ± 29.3% | inhibition at 200 µM (S. aureus ATCC 25923 [1]; [3]): 80.8 ± 3.8% | inhibition at 200 µM (S. aureus ATCC 25923 [1]; [4]): 89.9 ± 1.7% | Average inhibition %, biofilms viability (A. baumannii NCTC 13423; 10 µM): 40 ± 33.9% | Average inhibition %, planktonic cells viability (A. baumannii NCTC 13423; 10 µM): 37.7 ± 25.3% | Average inhibition %, biofilms viability (A. baumannii NCTC 13423; 15 µM): 100.5 ± 1% | Average inhibition %, planktonic cells viability (A. baumannii NCTC 13423; 15 µM): 99.8 ± 0.4% | Average inhibition %, biofilms viability (A. baumannii NCTC 13423; 25 µM): 101.2 ± 1.3% | Average inhibition %, planktonic cells viability (A. baumannii NCTC 13423; 25 µM): 99.7 ± 0.3% | Average inhibition %, biofilms viability (A. baumannii NCTC 13423; 50 µM): 101.3 ± 1.2% | Average inhibition %, planktonic cells viability (A. baumannii NCTC 13423; 50 µM): 99.7 ± 0.2% | inhibition at 10 µM (A. baumannii NCTC 13423; [5]): 21.3 ± 18.9% | inhibition at 10 µM (A. baumannii NCTC 13423; [6]): 46 ± 39.6% | inhibition at 15 µM (A. baumannii NCTC 13423; [7]): 85.4 ± 2% | inhibition at 15 µM (A. baumannii NCTC 13423; [8]): 99.3 ± 0.9% | inhibition at 25 µM (A. baumannii NCTC 13423; [9]): 83.1 ± 3% | inhibition at 25 µM (A. baumannii NCTC 13423; [10]): 99.2 ± 0.9% | inhibition at 50 µM (A. baumannii NCTC 13423; [11]): 79 ± 9.4% | inhibition at 50 µM (A. baumannii NCTC 13423; [12]): 98.8 ± 0.9% | MIC (A. baumannii NCTC 13423; pre-exposure, Inactive = no activity up to 50 μM, > = some inhibition but no MIC reached, read-out: MIC A. baumannii NCTC 13423): 15 µM (≈ 5.05 µg/mL) | MIC (A. baumannii NCTC 13423; supplementary molecular formula strings sheet, read-out: MIC (A. baumannii)): 15 µM (≈ 5.05 µg/mL) | Average inhibition %, biofilms viability (P. aeruginosa ATCC 9027; 50 µM): 13.5 ± 11.7% | Average inhibition %, planktonic cells viability (P. aeruginosa ATCC 9027; 50 µM): 18.7 ± 18.1% | Average inhibition %, biofilms viability (P. aeruginosa ATCC 9027; 100 µM): 13.6 ± 3.2% | Average inhibition %, planktonic cells viability (P. aeruginosa ATCC 9027; 100 µM): 39.6 ± 45.8% | Average inhibition %, biofilms viability (P. aeruginosa ATCC 9027; 150 µM): 27.7 ± 14.8% | Average inhibition %, planktonic cells viability (P. aeruginosa ATCC 9027; 150 µM): 76.3 ± 19.2% | Average inhibition %, biofilms viability (P. aeruginosa ATCC 9027; 200 µM): 61.8 ± 34.8% | Average inhibition %, planktonic cells viability (P. aeruginosa ATCC 9027; 200 µM): 94.7 ± 4.6% | MIC (P. aeruginosa ATCC 9027; ATCC9027, pre-exposure, Inactive = no activity up to 200 μM, > = some inhibition but no MIC reached, read-out: MIC P. aeruginosa ATCC 9027): > 200 µM | MIC (P. aeruginosa ATCC 9027; ATCC9027, supplementary molecular formula strings sheet, read-out: MIC (P. aeruginosa)): > 200 µM | inhibition at 50 µM (P. aeruginosa ATCC 9027; [11]): 19.7 ± 9.7% | inhibition at 50 µM (P. aeruginosa ATCC 9027; [12]): 35.6 ± 9.3% | inhibition at 100 µM (P. aeruginosa ATCC 9027; 100 µM, read-out: Average inhibition %, biofilms biomass): 18.6 ± 19.2% | inhibition at 100 µM (P. aeruginosa ATCC 9027; 100 µM, read-out: Average inhibition %, planktonic cells turbidity): 58 ± 23% | inhibition at 150 µM (P. aeruginosa ATCC 9027; 150 µM, read-out: Average inhibition %, biofilms biomass): 21 ± 3.9% | inhibition at 150 µM (P. aeruginosa ATCC 9027; 150 µM, read-out: Average inhibition %, planktonic cells turbidity): 84.5 ± 4.1% | inhibition at 200 µM (P. aeruginosa ATCC 9027; 200 µM, read-out: Average inhibition %, biofilms biomass): 38.5 ± 47.1% | inhibition at 200 µM (P. aeruginosa ATCC 9027; 200 µM, read-out: Average inhibition %, planktonic cells turbidity): 92.5 ± 5% | MIC (S. aureus ATCC 25923 [2]; lowest concentration with no visible growth (>90% inhibition of turbidity and viability of planktonic cells), 18 h, read-out: MIC S. aureus ATCC 25923): 15 µM (≈ 5.05 µg/mL) | inhibition at 5 µM (S. aureus ATCC 25923 [2]; 5 µM, read-out: Average inhibition %, biofilms biomass): 34.5 ± 10.1% | inhibition at 5 µM (S. aureus ATCC 25923 [2]; 5 µM, read-out: Average inhibition %, planktonic cells turbidity): 9.5 ± 10.5% | inhibition at 10 µM (S. aureus ATCC 25923 [2]; [5]): 46 ± 8% | inhibition at 10 µM (S. aureus ATCC 25923 [2]; [6]): 15.6 ± 7.5% | inhibition at 15 µM (S. aureus ATCC 25923 [2]; [7]): 91.8 ± 5.5% | inhibition at 15 µM (S. aureus ATCC 25923 [2]; [8]): 85.8 ± 12.4% | inhibition at 25 µM (S. aureus ATCC 25923 [2]; [9]): 94.8 ± 1.6% | inhibition at 25 µM (S. aureus ATCC 25923 [2]; [10]): 99.1 ± 0.7% | MIC (S. aureus ATCC 25923 [2]; read-out: MIC (S. aureus)): 15 µM (≈ 5.05 µg/mL) | MIC S. aureus ATCC 25923 (S. aureus ATCC 25923 [2]; lowest concentration with no visible growth (>90% inhibition of turbidity and viability of planktonic cells), 18 h): same MIC as fingolimod | Average inhibition %, biofilms viability (S. aureus ATCC 25923 [2]; 5 µM): 23.3 ± 7.1% | Average inhibition %, planktonic cells viability (S. aureus ATCC 25923 [2]; 5 µM): 0 ± 0% | Average inhibition %, biofilms viability (S. aureus ATCC 25923 [2]; 10 µM): 35.7 ± 5.8% | Average inhibition %, planktonic cells viability (S. aureus ATCC 25923 [2]; 10 µM): 0 ± 0% | Average inhibition %, biofilms viability (S. aureus ATCC 25923 [2]; 15 µM): 95.2 ± 3.8% | Average inhibition %, planktonic cells viability (S. aureus ATCC 25923 [2]; 15 µM): 92.4 ± 6.5% | Average inhibition %, biofilms viability (S. aureus ATCC 25923 [2]; 25 µM): 99.6 ± 0.2% | Average inhibition %, planktonic cells viability (S. aureus ATCC 25923 [2]; 25 µM): 100 ± 0.1%
